{"source": "patent EP1501797B1", "about": "“3-(SUBSTITUTED AMINO)-1H-INDOLE-2-CARBOXYLIC ACID ESTER AND 3-(SUBSTITUTED AMINO)-BENZO[B]THIOPHENE-2-CARBOXYLIC ACID ESTER DERIVATIVES AS INTERLEUKIN-4 GENE EXPRESSION INHIBITORS” (Aventis Pharmaceuticals Inc., priority 2002, dated 2003)", "key": {"Human Th2 cells": {"test_system": "Human Th2 cells", "experiment": "Human primary Th2 cells, proliferation (viability, MTS assay)", "format": "cell-based", "details": "Human primary Th2 cells; combined data from 10 different experiments; read-out: Prol. IC50"}, "Swiss 3T3 fibroblasts": {"test_system": "Swiss 3T3 fibroblasts", "experiment": "in vitro", "method": "(§1) A third assay utilized in the present invention involves an in vitro cytotoxicity assay. This assay is used to further characterize the compounds in order to assess toxic activities of compounds on contact inhibited, non-dividing 3T3 fibroblasts. Other toxicity assays may be used.\n(§2) Contact inhibited Swiss 3T3 fibroblasts are purchased from ATCC. The cells are maintained in 1640 RPMI supplemented with 10% fetal bovine serum (Gibco).\n(§3) On day of assay, cells are detached from flasks by trypsinization, washed in medium and counted. 100 microliters of 2.5 x 10^4 cells per well are plated into Falcon brand 96 well tissue culture plates and cells incubated at 37°C in presence of 5% CO2 for 2 days or until confluent.\n(§4) […] All compound dilutions are assayed in triplicate. […] Cells are returned to the incubator for 2 days.\n(§5) After 2 day incubation, the 3T3 cells are assayed for viability using an MTS Assay Kit (Promega). Media is added to blank wells for background calculations. After 2 hours incubation in kit reagent, the optical density at 490 nm for each compound and control is determined by plate reader.\n(§6) Results are expressed as percent cytotoxicity, i.e., (mean OD of compound wells - background OD)/ (mean OD of controls - background).\n(§7) Note that starting concentration of CsA was 1 µM. […]"}, "in vitro": {"experiment": "in vitro", "details": "mouse, swiss 3t3 fibroblasts", "method": "as §1, §2, §3, §4, §5, §6, §7"}}, "note": "pIC50: −log10 of the molar value.", "data": [{"smiles": "O=C(O)c1[nH]c2ccccc2c1Nc1ccncc1", "note": "[Example 28, 3-(4-Pyridinylamino)-1H-indole-2-carboxylic acid]", "values": [{"measurement": "pIC50", "setting": "Human Th2 cells", "result": "< 5.00"}, {"measurement": "toxic effects on the viability of quiescent 3T3 cells (in words)", "setting": "Swiss 3T3 fibroblasts", "result": "no toxic effects"}, {"measurement": "viability at 48 h, 0.001 µM", "setting": "in vitro", "result": 124, "unit": "%"}, {"measurement": "viability at 48 h, 0.01 µM", "setting": "in vitro", "result": 112, "unit": "%"}, {"measurement": "viability at 48 h, 0.03 µM", "setting": "in vitro", "result": 111, "unit": "%"}, {"measurement": "viability at 48 h, 0.1 µM", "setting": "in vitro", "result": 111, "unit": "%"}, {"measurement": "viability at 48 h, 3 µM", "setting": "in vitro", "result": 110, "unit": "%"}, {"measurement": "viability at 48 h, 10 µM", "setting": "in vitro", "result": 99.1, "unit": "%"}]}]}
